Results on five compounds are retold here after patent US20110046147A1, “17BETA-HYDROXYSTEROID DEHYDROGENASE TYPE 1 INHIBITORS FOR THE TREATMENT OF HORMONE-RELATED DISEASES” (UNIVERSITAT DES SAARLANDES, priority 2007, published 2011).

The target in one experiment is T1, CYP2B6 (Homo sapiens, UniProt P20813).
T1 construct: purchased Becton Dickinson GmbH (Heidelberg)
T1 sequence (P20813 1-491): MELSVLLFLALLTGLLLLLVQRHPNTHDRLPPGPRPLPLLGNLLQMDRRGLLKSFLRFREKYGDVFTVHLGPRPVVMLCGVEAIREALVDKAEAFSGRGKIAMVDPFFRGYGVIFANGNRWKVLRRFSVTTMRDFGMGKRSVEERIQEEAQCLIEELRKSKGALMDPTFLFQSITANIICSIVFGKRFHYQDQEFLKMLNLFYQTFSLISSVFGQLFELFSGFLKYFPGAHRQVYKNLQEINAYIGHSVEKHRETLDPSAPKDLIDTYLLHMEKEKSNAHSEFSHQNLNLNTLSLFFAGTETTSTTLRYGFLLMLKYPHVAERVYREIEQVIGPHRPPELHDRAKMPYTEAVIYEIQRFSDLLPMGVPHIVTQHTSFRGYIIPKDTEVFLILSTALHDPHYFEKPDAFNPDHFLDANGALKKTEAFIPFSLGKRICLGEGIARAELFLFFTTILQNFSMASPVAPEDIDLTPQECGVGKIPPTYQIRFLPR
As to the kind of experiment: Inhibition of hepatic CYP enzymes: CYP2B6. Type of experiment: biochemical. To be noted: read-out: CYP2B6 IC50 (mean ± SD). The text has this:
(§1) Drug interactions (inhibition of hepatic CYP enzymes): The inhibition of six human hepatic cytochrome P450 enzymes by selected compounds was examined by means of the kit supplied by Becton Dickinson GmbH (Heidelberg).

In a further experiment the target is T2, CYP2D6 (Homo sapiens, UniProt P10635).
T2 construct: purchased Becton Dickinson GmbH (Heidelberg)
As to the kind of experiment: Inhibition of hepatic CYP enzymes: CYP2D6. Type of experiment: biochemical. The settings on record: read-out: CYP2D6 IC50 (mean ± SD).
Excerpt: as §1

In the next experiment the target is T3, 17β-HSD2 (Homo sapiens, UniProt P37059).
T3 construct: from tissue; host or cells: human placenta, microsome fraction
T3 sequence (P37059 1-387): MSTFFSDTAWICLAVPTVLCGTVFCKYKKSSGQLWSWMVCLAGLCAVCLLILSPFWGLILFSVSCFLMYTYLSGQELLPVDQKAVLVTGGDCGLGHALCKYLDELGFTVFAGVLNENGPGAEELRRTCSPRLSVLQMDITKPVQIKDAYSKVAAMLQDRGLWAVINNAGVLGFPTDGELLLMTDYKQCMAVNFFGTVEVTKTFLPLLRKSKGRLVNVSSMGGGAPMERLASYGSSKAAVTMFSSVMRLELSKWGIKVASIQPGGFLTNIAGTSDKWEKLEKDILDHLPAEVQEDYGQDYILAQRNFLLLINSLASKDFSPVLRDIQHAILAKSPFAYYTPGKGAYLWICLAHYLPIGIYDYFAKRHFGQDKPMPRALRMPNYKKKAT
In words: Inhibition of 17β-HSD2 (estradiol to estrone, radio-HPLC). In kind it is biochemical. The settings on record: human placenta microsome fraction, 500 nM estradiol, NAD+ 1500 μM. The procedure:
Determination of the inhibitory activity of the potential inhibitors: Inhibition of 17β-HSD1 and 17β-HSD2: In both cases, human placenta served as the enzyme source (Lin, S.-X. et al., J. Biol. Chem., 267: 16182-16187 (1992)).
In the 17β-HSD2 test, the natural cosubstrate NAD^+ is employed at a final concentration of 1500 μM. The microsome fraction is diluted in test buffer, so that a control conversion of 20 to 30% results (about 1:350). As the substrate, estradiol in a final concentration of 500 nM is used, of which 3 nM is tritiated. 2,4,6,7-[^3H]estradiol is also purchased from Perkin-Elmer, Boston. The inhibitor is added as a solution in DMSO (control: pure DMSO without inhibitor; the final concentration of DMSO in the assay is […]). After the addition of the substrate, incubation is performed at 37° C. for 20 minutes. The reaction is quenched by the addition of HgCl2 (final concentration of HgCl2: 0.166 mM).
(§2) After the reaction, the substrate and product are extracted by partitioning with ether, separated by chromatography (HPLC) and quantified by means of radiodetection.

The target in a further experiment is T4, 17β-HSD1 (Homo sapiens, UniProt P14061).
T4 construct: In both cases, human placenta served as the enzyme source; from tissue; host or cells: human placenta
T4 sequence (P14061 1-328): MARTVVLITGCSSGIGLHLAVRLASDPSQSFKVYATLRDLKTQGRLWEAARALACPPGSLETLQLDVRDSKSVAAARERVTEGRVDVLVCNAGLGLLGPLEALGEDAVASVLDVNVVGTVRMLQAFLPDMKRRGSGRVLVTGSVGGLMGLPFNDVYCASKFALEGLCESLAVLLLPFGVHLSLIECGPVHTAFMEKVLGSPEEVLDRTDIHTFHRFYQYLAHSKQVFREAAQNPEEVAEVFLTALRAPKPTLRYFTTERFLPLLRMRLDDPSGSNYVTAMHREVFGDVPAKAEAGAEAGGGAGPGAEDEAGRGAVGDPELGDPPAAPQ
As to the kind of experiment: Inhibition of 17β-HSD1 (estrone to estradiol, radio-HPLC). Type of experiment: biochemical. The settings on record: for IC50: human placenta enzyme, 500 nM estrone, NADH 500 μM. The procedure:
In the 17β-HSD1 test, NADH is employed as a cosubstrate at a final concentration of 500 μM in order to avoid the product inhibition occurring with NADPH. The enzyme preparation is diluted with test buffer to such an extent that the control conversion is 10 to maximally 20% (about 1:650). As the substrate, estrone in a final concentration of 500 nM is used, of which 3 nM is tritiated. 2,4,6,7-[^3H]estrone is purchased from Perkin-Elmer, Boston. The inhibitor is added as a solution in DMSO (control: pure DMSO without inhibitor; the final concentration of DMSO in the assay is 1% in all cases).
as §2

The target in another experiment is T5, CYP2C19 (Homo sapiens, UniProt P33261).
T5 construct: purchased Becton Dickinson GmbH (Heidelberg)
In words: Inhibition of hepatic CYP enzymes: CYP2C19. In kind it is biochemical. The settings on record: read-out: CYP2C19 IC50 (mean ± SD).
Excerpt: as §1

The next experiment deals with T6, CYP1A2 (Homo sapiens, UniProt P05177).
T6 construct: purchased Becton Dickinson GmbH (Heidelberg)
T6 sequence (P05177 1-516): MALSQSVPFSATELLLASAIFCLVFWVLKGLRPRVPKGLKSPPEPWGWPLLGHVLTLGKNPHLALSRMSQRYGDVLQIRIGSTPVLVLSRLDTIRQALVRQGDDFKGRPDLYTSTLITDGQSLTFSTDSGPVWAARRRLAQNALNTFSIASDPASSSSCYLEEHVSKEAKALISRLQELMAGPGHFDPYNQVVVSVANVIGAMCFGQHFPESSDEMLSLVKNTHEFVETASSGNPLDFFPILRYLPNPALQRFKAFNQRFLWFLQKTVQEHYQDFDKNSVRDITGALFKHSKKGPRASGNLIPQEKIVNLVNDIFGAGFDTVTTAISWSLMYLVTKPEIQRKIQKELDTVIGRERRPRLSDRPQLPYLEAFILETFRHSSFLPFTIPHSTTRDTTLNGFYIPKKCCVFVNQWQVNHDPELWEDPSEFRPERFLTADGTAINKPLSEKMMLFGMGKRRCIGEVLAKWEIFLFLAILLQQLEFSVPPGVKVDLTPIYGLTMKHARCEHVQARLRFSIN
In words: Inhibition of hepatic CYP enzymes: CYP1A2. To be noted: read-out: CYP1A2 IC50 (mean ± SD). In kind it is biochemical.
Excerpt: as §1

For the next experiment, the target named is T7, estrogen receptor α (Homo sapiens, UniProt P03372).
T7 sequence (P03372 1-595): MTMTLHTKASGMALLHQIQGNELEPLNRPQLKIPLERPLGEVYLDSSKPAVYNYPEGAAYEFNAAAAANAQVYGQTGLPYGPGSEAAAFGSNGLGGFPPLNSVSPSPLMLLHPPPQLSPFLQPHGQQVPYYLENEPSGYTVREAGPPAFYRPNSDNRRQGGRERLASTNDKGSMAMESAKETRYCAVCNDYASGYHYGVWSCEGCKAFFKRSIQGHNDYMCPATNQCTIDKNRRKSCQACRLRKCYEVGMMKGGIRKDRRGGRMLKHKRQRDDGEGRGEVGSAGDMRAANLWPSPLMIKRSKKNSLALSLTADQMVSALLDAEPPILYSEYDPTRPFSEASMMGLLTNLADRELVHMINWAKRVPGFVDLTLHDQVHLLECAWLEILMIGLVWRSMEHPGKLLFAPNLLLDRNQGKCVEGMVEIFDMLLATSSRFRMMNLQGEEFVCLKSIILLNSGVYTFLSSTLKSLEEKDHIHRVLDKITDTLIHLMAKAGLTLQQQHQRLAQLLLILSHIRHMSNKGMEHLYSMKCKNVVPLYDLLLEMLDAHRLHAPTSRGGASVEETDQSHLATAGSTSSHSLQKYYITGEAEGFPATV
As to the kind of experiment: Affinity for the estrogen receptor α (RBA). Type of experiment: binding. The settings on record: data not stated. The procedure: Slight changes were made: The respective inhibitor was incubated at RT for 2 h with shaking.
The receptor affinities are established as RBA (relative binding affinity) values. The RBA value of the reference estradiol is set to 100%.

The next experiment concerns estrogen receptor. The settings on record: cited from earlier work.

T2 sequence (P10635 whole entry): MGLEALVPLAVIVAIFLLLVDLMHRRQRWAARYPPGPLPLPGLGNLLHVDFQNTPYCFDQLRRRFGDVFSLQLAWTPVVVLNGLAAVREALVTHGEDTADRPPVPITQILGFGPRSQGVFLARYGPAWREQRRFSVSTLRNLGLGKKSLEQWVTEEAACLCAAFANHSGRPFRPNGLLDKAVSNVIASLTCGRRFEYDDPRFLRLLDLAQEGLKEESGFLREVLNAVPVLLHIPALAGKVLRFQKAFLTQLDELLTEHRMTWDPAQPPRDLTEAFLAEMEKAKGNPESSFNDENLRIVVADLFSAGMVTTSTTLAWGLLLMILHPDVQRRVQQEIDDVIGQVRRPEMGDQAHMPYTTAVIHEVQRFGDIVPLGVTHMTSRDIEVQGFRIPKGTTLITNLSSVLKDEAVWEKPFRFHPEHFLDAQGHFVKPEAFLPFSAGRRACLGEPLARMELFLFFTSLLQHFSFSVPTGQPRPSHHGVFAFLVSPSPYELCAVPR
T5 sequence (P33261 whole entry): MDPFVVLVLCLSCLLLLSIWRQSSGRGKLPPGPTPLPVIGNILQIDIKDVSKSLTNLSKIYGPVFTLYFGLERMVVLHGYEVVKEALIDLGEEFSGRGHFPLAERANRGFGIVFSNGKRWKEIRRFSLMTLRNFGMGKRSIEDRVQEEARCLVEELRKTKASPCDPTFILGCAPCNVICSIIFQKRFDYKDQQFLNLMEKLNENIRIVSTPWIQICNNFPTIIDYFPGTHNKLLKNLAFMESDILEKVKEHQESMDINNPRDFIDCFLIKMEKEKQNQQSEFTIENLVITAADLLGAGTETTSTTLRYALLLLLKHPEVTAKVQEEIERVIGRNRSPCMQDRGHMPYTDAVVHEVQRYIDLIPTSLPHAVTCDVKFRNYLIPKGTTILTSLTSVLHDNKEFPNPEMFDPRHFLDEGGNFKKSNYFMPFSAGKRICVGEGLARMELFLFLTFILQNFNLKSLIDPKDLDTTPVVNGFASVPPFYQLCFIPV

For orientation: IC50 means the concentration needed to halve the response being measured. In the case of `Oc1cccc(-c2cnc(-c3cccc(O)c3)s2)c1` [Compound 22, 3,3′-(1,3-thiazole-2,5-diyl)diphenol], the concentration for half-maximal inhibition (IC50) was found to be 14.2 ± 0.44 µM on CYP2B6; 7.76 ± 0.03 µM on CYP2D6; 2.5 µM at 17β-HSD2; 0.28 µM on 17β-HSD1; 4.57 ± 0.05 µM at CYP2C19; 4.92 ± 0.09 µM at CYP1A2.
For the compound `Oc1cccc(-c2csc(-c3cccc(O)c3)n2)c1` [Compound 26, 3,3′-(1,3-Thiazole-2,4-diyl)diphenol], the half-maximal inhibitory concentration (IC50) against 17β-HSD2 is 2.22 µM; against 17β-HSD1 it was 0.41 µM. Also, the “Selectivity IC50 (17β-HSD2)/IC50 (17β-HSD1)” value at 17β-HSD1 (ratio of IC50 values) turned out to be 5.4. The “affinity for the estrogen receptor (in words)” value (“affinity” below) on estrogen receptor α is on record as “negligible”.
At 17β-HSD1, `Oc1ccc(-c2csc(-c3cccc(O)c3)n2)cc1` [Compound 23, 3-[4-(4-Hydroxyphenyl)-1,3-thiazole-2-yl]phenol] gave an IC50 of 0.32 µM. On estrogen receptor α, the “affinity” value was “negligible”.
For `Oc1ccc(-c2csc(-c3ccc(O)cc3)n2)cc1` [Compound 25, 4,4′-(1,3-Thiazole-2,4-diyl)diphenol], at 17β-HSD1, the “inhibition of 17β-HSD1 (in words)” value is listed as “no activity”. Further, on 17β-HSD1 (Table 6, isomeric bis(hydroxyphenyl)-1,3-thiazoles), the “Inhibition of 17β-HSD1, IC50 (nM)” value is reported as “no inhibition”. Moreover, the “RBA (%) (Katzenellenbogen patent)” value with estrogen receptor is 0.018%.
By inhibition is commonly meant the share of the control response that was lost under treatment. Consider `Oc1ccc(-c2nc(-c3cccc(O)c3)cs2)cc1` [Compound 24, 3-[2-(4-Hydroxyphenyl)-1,3-thiazole-4-yl]phenol], for which the inhibition at 1 µM at 17β-HSD1 (read-out: inhibition of 17β-HSD1 at 1 μM) was found to be 49%. Besides, at estrogen receptor α, the “affinity” value was “negligible”.
